According to patent publication US9260429B2, “Pyrido[3,4-B]indoles and methods of use” (Medivation Technologies, Inc., priority 2008, dated 2016):

Legend:
[1] = target: T1, human recombinant histamine H1 receptor (Homo sapiens, UniProt P35367); experiment: Histamine H1 radioligand binding ([3H]Pyrilamine); conditions: 1 μM; read-out: Binding data (Percentage Inhibition) Histamine Binding (1 μM) H1
T1 construct: expressed in transfected cells; host or cells: CHO cells
Summary of the method: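 Binding to the human recombinant histamine H1 receptor, expressed in CHO cells, was measured in a modified Tris-HCl buffer (50 mM Tris-HCl, pH 7.4, 2 mM MgCl2, 100 mM NaCl, 250 mM Sucrose). Compounds were incubated with 1.2 nM [3H]Pyrilamine for 180 minutes at 25° C, with 1 μM pyrilamine defining non-specific binding. After filtration and washing, filter counts gave percent inhibition of specific binding.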

[2] = target: T2, human recombinant histamine H2 receptor (Homo sapiens, UniProt P25021); experiment: Histamine H2 radioligand binding ([125I]Aminopotentidine); conditions: 1 μM; inhibition of specific [125I]Aminopotentidine binding; read-out: Binding data (Percentage Inhibition) Histamine Binding (1 μM) H2
T2 construct: expressed in transfected cells; host or cells: CHO-K1 cells
T2 sequence (P25021 whole entry): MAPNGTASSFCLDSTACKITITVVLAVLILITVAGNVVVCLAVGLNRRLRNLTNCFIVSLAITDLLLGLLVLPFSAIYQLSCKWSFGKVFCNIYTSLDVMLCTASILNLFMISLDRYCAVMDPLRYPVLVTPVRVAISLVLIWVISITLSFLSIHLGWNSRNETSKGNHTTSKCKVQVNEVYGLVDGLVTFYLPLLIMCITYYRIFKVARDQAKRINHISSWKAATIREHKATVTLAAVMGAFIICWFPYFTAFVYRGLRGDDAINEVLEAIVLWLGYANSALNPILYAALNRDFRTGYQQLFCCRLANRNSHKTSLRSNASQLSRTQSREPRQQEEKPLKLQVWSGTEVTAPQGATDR
Summary of the method: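 Membranes of CHO-K1 cells expressing human H2 receptor incubated with 0.1 nM [125I]aminopotentidine, 120 min, 25 °C, 50 mM phosphate pH 7.4; nonspecific binding defined with 3 μM tiotidine.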

[3] = target: T3, human recombinant dopamine D2L receptor (Homo sapiens, UniProt P14416); experiment: Dopamine D2L radioligand binding ([3H]Spiperone); conditions: 2 h, 1 μM ligand conc.; read-out: Percent Inhibition of ligand binding Dopamine (1 μM ligand conc.) D2L
T3 construct: expressed in transfected cells; host or cells: CHO cells
T3 sequence (P14416 whole entry): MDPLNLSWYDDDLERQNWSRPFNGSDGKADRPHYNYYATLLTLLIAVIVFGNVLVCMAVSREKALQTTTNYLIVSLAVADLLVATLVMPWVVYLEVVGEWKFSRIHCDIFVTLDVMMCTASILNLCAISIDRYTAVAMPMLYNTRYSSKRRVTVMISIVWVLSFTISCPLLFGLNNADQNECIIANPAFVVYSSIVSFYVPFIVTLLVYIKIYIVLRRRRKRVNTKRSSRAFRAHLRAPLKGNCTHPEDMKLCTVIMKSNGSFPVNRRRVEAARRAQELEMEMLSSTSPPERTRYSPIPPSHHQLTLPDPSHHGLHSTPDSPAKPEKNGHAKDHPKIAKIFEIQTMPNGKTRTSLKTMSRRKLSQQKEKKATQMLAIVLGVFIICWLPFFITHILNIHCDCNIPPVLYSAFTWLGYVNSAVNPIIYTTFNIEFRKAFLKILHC
Summary of the method: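 CHO-expressed receptor in 50 mM Tris-HCl pH 7.4 with ascorbic acid, 0.001% BSA, 150 mM NaCl; 0.16 nM [3H]spiperone, 120 min at 25 °C; nonspecific binding with haloperidol.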

[4] = target: T4, human recombinant serotonin (5-Hydroxytryptamine) 5-HT2C receptor (Homo sapiens, UniProt P28335); experiment: Serotonin 5-HT2C radioligand binding ([3H]Mesulergine); conditions: for inhibition at 1 µM: 1 h, read-out: Percent Inhibition of ligand binding Serotonin (1 μM ligand concentration) 5-HT2C
T4 construct: expressed in transfected cells; host or cells: CHO-K1 cells
T4 sequence (P28335 33-458): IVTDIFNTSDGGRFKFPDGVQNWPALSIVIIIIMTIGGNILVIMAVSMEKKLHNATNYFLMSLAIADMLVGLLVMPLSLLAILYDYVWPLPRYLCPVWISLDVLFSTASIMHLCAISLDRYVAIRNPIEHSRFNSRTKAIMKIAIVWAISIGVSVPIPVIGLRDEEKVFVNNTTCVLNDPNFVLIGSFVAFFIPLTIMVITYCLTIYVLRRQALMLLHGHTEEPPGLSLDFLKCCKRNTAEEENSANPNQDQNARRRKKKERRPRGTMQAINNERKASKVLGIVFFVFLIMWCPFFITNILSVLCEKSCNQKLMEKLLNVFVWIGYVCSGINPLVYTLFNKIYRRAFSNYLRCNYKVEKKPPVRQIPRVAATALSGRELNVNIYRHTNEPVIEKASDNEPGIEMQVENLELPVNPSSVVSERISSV
Procedure: Compounds of the invention were incubated with 1 nM [^3H]Mesulergine for 60 minutes at 25° C. Non-specific binding was estimated in the presence of 1 μM Mianserin. Receptor proteins were filtered and washed, the filters were then counted to determine [^3H]Mesulergine specifically bound. […] Biochemical assay results are presented as the percent inhibition of specific binding in Table 5.

[5] = target: T5, human recombinant serotonin (5-Hydroxytryptamine) 5-HT6 receptor (Homo sapiens, UniProt P50406); experiment: Serotonin 5-HT6 radioligand binding ([3H]LSD); conditions: 2 h; read-out: Percent Inhibition of ligand binding Serotonin (1 μM ligand concentration) 5-HT6
T5 construct: expressed in transfected cells; host or cells: human HeLa cells
T5 sequence (P50406 whole entry): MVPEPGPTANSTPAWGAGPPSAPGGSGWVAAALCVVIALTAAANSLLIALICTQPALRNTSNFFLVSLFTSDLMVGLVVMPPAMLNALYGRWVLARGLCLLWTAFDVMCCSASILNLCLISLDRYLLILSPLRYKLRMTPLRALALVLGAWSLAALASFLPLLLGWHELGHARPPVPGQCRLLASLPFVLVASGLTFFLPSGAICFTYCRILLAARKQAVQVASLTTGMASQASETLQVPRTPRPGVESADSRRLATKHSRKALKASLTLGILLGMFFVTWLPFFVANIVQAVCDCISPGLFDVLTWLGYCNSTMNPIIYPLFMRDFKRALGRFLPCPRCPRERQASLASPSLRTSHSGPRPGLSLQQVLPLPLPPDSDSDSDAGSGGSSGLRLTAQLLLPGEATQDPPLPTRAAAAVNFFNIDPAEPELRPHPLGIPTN
Summary of the method: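 Human 5-HT6 receptor expressed in HeLa cells, in Tris-HCl pH 7.4 with 150 mM NaCl, ascorbic acid and BSA. Compounds at 1 μM or lower (1% DMSO) incubated 120 min at 37° C with 1.5 nM [3H]LSD. Non-specific binding defined with serotonin; filter counting gives % inhibition of specific binding.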

[6] = target: T6, human recombinant serotonin (5-Hydroxytryptamine) 5-HT2A receptor (Homo sapiens, UniProt P28223); experiment: Serotonin 5-HT2A radioligand binding ([3H]Ketanserin); conditions: 1 h; read-out: Percent Inhibition of ligand binding Serotonin (1 μM ligand concentration) 5-HT2A
T6 construct: expressed in transfected cells; host or cells: CHO-K1 cells
T6 sequence (P28223 whole entry): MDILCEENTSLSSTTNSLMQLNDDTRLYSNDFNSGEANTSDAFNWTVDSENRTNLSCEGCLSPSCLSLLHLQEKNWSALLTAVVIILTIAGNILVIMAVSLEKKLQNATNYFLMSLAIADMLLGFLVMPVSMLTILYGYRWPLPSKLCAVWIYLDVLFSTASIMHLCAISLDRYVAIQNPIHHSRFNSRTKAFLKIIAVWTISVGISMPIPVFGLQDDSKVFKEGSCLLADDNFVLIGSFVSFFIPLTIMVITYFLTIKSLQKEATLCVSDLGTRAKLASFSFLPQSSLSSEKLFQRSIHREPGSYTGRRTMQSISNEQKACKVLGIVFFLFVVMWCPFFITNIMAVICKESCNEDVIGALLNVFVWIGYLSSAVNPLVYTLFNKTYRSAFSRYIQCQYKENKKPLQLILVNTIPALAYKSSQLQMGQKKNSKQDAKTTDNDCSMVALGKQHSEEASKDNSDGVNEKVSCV
Summary of the method: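 Membranes from CHO-K1 cells expressing the receptor, in 50 mM Tris-HCl pH 7.4, incubated 60 min at 25° C with 0.5 nM [3H]Ketanserin; 1 μM Mianserin defines non-specific binding. Filtration and counting; values are % inhibition of specific binding at 1 μM or lower, 1% DMSO.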

T1 sequence (P35367 whole entry): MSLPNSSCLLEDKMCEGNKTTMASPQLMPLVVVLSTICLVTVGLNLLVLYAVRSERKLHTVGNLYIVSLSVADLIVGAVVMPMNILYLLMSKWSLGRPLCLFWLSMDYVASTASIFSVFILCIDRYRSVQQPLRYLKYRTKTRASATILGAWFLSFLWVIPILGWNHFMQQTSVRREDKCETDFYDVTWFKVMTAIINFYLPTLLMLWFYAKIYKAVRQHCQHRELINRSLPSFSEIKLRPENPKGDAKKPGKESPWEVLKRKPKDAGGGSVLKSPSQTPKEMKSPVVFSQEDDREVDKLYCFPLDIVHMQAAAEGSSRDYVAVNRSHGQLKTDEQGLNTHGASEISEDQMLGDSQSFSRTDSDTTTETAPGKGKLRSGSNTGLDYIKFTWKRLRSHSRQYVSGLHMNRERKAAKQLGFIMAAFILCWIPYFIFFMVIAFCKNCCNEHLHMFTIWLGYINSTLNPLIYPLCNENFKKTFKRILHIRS

| Compound | inhibition at 1 µM [1] [%] | inhibition at 1 µM [2] [%] | inhibition at 1 µM [3] [%] | inhibition at 1 µM [4] [%] | inhibition at 1 µM [5] [%] | inhibition at 1 µM [6] [%] | Percent Inhibition of ligand binding Serotonin (1 μM ligand concentration) 5-HT2C [4] [%] |
| --- | --- | --- | --- | --- | --- | --- | --- |
| Cc1ccc2c(c1)c1c(n2CCc2ccc(C)nc2)CN(C)CC1 [Compound 1, 2,3,4,9-tetrahydro-2,6-dimethyl-9-(2-(6-methylpyridin-3-yl)ethyl)-1H-pyrido[3,4-b]indole] | 77 | 5 | 6 | 25 | 5 |  |  |
| Cc1ccc2c(c1)c1c(n2CCC2CCCCC2)CN(C)CC1 [Compound 2, 9-(2-cyclohexylethyl)-2,3,4,9-tetrahydro-2,6-dimethyl-1H-pyrido[3,4-b]indole] | 95 | 71 | -7 | 84 | 58 |  |  |
| CN1CCc2c(n(CCc3ccc(F)cc3)c3ccc(Cl)cc23)C1 [Compound 3, 9-(4-fluorophenethyl)-6-chloro-2,3,4,9-tetrahydro-2-methyl-1H-pyrido[3,4-b]indole] | 83 | 51 | 47 | 90 | 100 |  |  |
| Cc1ccc2c(c1)c1c(n2CCc2ccc(C(F)(F)F)nc2)CN(C)CC1 [Compound 5, 9-(2-(6-(trifluoromethyl)pyridin-3-yl)ethyl)-2,3,4,9-tetrahydro-2,6-dimethyl-1H-pyrido[3,4-b]indole] | 35 | 36 | 0 | 39 | 6 | 51 |  |
| CC(C)CCN(C)C(=O)Cn1c2c(c3cc(Cl)ccc31)CCN(C)C2 [Compound 14, 2-(6-chloro-1,2,3,4-tetrahydro-2-methylpyrido[3,4-b]indol-9-yl)-N-isopentyl-N-methylacetamide] | 0 | 12 | 6 | 20 | 12 | 27 |  |
| CN1CCc2c(n(CC(=O)Nc3ccc(F)cc3)c3ccc(Cl)cc23)C1 [Compound 15, 2-(6-chloro-1,2,3,4-tetrahydro-2-methylpyrido[3,4-b]indol-9-yl)-N-(4-fluorophenyl)acetamide] | 0 | -3 | -5 | 15 | -2 | 6 |  |
| CN1CCc2c(n(CC(=O)N(C)C)c3ccc(Cl)cc23)C1 [Compound 16, 2-(6-chloro-1,2,3,4-tetrahydro-2-methylpyrido[3,4-b]indol-9-yl)-N,N-dimethylacetamide] | 16 | 1 | -7 | -18 | 9 | 10 |  |
| CN1CCc2c(n(CC(=O)NC3CCCCC3)c3ccc(Cl)cc23)C1 [Compound 17, 2-(6-chloro-1,2,3,4-tetrahydro-2-methylpyvrido[3,4-b]indol-9-yl)-N-cyclohexylacetamide] | 54 | -6 | -3 | 3 | 3 | 17 |  |
| CN1CCc2c(n(CC(=O)N(C)C3CCCCC3)c3ccc(Cl)cc23)C1 [Compound 18, 2-(6-chloro-1,2,3,4-tetrahydro-2-methylpyrido[3,4-b]indol-9-yl)-N-cyclohexyl-N-methylacetamide] | 10 | 7 | 0 | 3 | 1 | -1 |  |
| COC(=O)Cn1c2c(c3cc(C)ccc31)CCN(C)C2 [Compound 21, methyl 2-(1,2,3,4-tetrahydro-2,6-dimethylpyrido[3,4-b]indol-9-yl)acetate] | 3 | 2 | -1 |  | 6 | 4 | 16 |
| CN1CCc2c(n(CCCc3ccccc3)c3ccc(Cl)cc23)C1 [Compound 29, 6-chloro-2,3,4,9-tetrahydro-2-methyl-9-(3-phenylpropyl)-1H-pyrido[3,4-b]indole] | 98 | 60 | 24 | 90 | 62 | 83 |  |
| CN1CCc2c(n(CCN3CCCCC3)c3ccc(Cl)cc23)C1 [Compound 34, 6-chloro-2,3,4,9-tetrahydro-2-methyl-9-(2-(piperidin-1-yl)ethyl)-1H-pyrido[3,4-b]indole] | 56 | 20 | 9 | 37 | 16 | 31 |  |
| CN1CCc2c(n(CCC3CCCC3)c3ccc(Cl)cc23)C1 [Compound 35, 6-chloro-9-(2-cyclopentylethyl)-2,3,4,9-tetrahydro-2-methyl-1H-pyrido[3,4-b]indole] | 98 | 67 | 3 | 87 | 67 | 69 |  |
| CC1CCN(C(=O)Cn2c3c(c4cc(Cl)ccc42)CCN(C)C3)CC1 [Compound 38, 2-(6-chloro-1,2,3,4-tetrahydro-2-methylpyrido[3,4-b]indol-9-yl)-1-(4-methylpiperidin-1-vyl)ethanone] | 16 | 3 | -8 | 14 | -2 |  |  |
| CN1CCc2c(n(CC(=O)N3CCCC3)c3ccc(Cl)cc23)C1 [Compound 40, 2-(6-chloro-1,2,3,4-tetrahydro-2-methylpyrido[3,4-b]indol-9-yl)-1-(pyrrolidin-1-yl)ethanone] | 7 | 4 | -11 | 12 | 6 | 5 |  |
| Cc1ccc2c(c1)c1c(n2CCC(=O)N2CCCCC2)CN(C)CC1 [Compound 43, 3-(1,2,3,4-tetrahydro-2,6-dimethylpyrido[3,4-b]indol-9-yl)-1-(piperidin-1-yl)propan-1-one] | 30 | 6 | -8 | 31 | 3 | 69 |  |
| CN1CCc2c(n(CCCC(=O)N3CCCCC3)c3ccc(Cl)cc23)C1 [Compound 44, 4-(6-chloro-1,2,3,4-tetrahydro-2-methylpyrido[3,4-b]indol-9-yl)-1-(piperidin-1-yl)butan-1-one] | 62 | 9 | 8 | 54 | 12 | 73 |  |
| C#CCn1c2c(c3cc(Cl)ccc31)CCN(C)C2 [Compound 125, 6-chloro-2,3,4,9-tetrahydro-2-methyl-9-(prop-2-yn1)-1H-pyrido[3,4-b]indole] | 83 | 9 | 19 |  | 66 |  | 74 |
